For 12 compounds, TGI and GI50 results are on record in PubChem BioAssay (NCI).

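All cell lines were grown in 96-well plates and treated with compound for 48 hours. GI50 marks 50% less growth. The concentration for full growth arrest is given as TGI.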

Test systems include SK-MEL-2 melanoma; UACC-62 melanoma; COLO 205 colon; MOLT-4 leukemia; OVCAR-3 ovarian; KM12 colon; TK-10 renal; OVCAR-5 ovarian; SR leukemia; HCT-15 colon; MDA-N; DU-145 prostate; T-47D breast.
Holding throughout (test): DTP human tumour cell line panel, 48 h

Regarding `COc1ccc(C2C(=O)C(Cl)N2Nc2nc(C)cc(=O)[nH]2)cc1OC` (stereo not drawn), the TGI in the assay on SK-MEL-2 melanoma is above 100 µM; with UACC-62 melanoma it was above 100 µM; with COLO 205 colon, above 100 µM; with MOLT-4 leukemia, above 100 µM; in the assay with OVCAR-3 ovarian, 84.8 µM; in the assay with KM12 colon, above 100 µM. Besides, the concentration for total growth inhibition (TGI) in the assay on TK-10 renal, with OVCAR-5 ovarian, with SR leukemia and with HCT-15 colon was above 100 µM in each case.

Regarding `O=C(O)CSCC(=O)O`, the TGI in the assay with MDA-N, in the assay on SK-MEL-2 melanoma, in the assay with UACC-62 melanoma, with MOLT-4 leukemia, with OVCAR-3 ovarian and in the assay on KM12 colon was above 100 µM throughout. The total growth inhibition concentration (TGI) in the assay on TK-10 renal, in the assay on DU-145 prostate, in the assay on OVCAR-5 ovarian, in the assay with SR leukemia and in the assay with HCT-15 colon was above 100 µM throughout.

Turning to `Nc1ccc2nc3ccc(N)cc3[n+](-c3ccccc3)c2c1`, the TGI with T-47D breast was above 100 µM; in the assay on MDA-N, above 100 µM; in the assay with SK-MEL-2 melanoma, above 100 µM; in the assay with UACC-62 melanoma, above 100 µM; in the assay on COLO 205 colon, 26.9 µM; in the assay with OVCAR-3 ovarian it was above 100 µM. In addition, the TGI was above 100 µM with KM12 colon; above 100 µM with TK-10 renal; above 100 µM in the assay with DU-145 prostate; 80.9 µM in the assay with OVCAR-5 ovarian; above 100 µM with SR leukemia; above 100 µM in the assay with HCT-15 colon.

For the compound `c1ccc(C(c2ccccc2)[P+](c2ccccc2)(c2ccccc2)c2ccccc2)cc1`, the TGI with SK-MEL-2 melanoma stood at 1.25 µM; in the assay with UACC-62 melanoma it was 3.56 µM; in the assay with COLO 205 colon, 1.2 µM; with MOLT-4 leukemia it was 4.06 µM; in the assay with OVCAR-3 ovarian it was 3 µM; in the assay on KM12 colon, 2.7 µM. Moreover, the figures for the TGI with OVCAR-5 ovarian and in the assay on HCT-15 colon were 13.3 µM and 17.9 µM, respectively.

On to `Nc1ccc(C2NC(=O)Cc3c2ccc2ccccc32)cc1` (stereo not drawn), for which the TGI in the assay on T-47D breast, with MDA-N, with SK-MEL-2 melanoma, in the assay with UACC-62 melanoma, in the assay on COLO 205 colon and with MOLT-4 leukemia was above 100 µM each time. The TGI in the assay with OVCAR-3 ovarian, in the assay on KM12 colon, in the assay with TK-10 renal, with DU-145 prostate, in the assay with OVCAR-5 ovarian and in the assay on SR leukemia was above 100 µM throughout. The concentration for total growth inhibition (TGI) with HCT-15 colon was above 100 µM.

With `C=C[C@H]1CC[C@H]2[C@@H]3CC=C4C[C@@H](OC5OCC(O)C(O)C5O)CC[C@]4(C)[C@H]3CC[C@]12C` (stereo partly drawn), the TGI with T-47D breast was 55.3 µM; in the assay with MDA-N, 65.8 µM; in the assay with SK-MEL-2 melanoma it was 34.5 µM; with UACC-62 melanoma, 54.3 µM; in the assay with COLO 205 colon it was above 100 µM; in the assay on MOLT-4 leukemia it was above 100 µM. Besides, the TGI is 25.5 µM with OVCAR-3 ovarian; 31.8 µM in the assay on KM12 colon; above 100 µM in the assay with DU-145 prostate; 28.1 µM in the assay with OVCAR-5 ovarian; 33.7 µM in the assay with SR leukemia; above 100 µM with HCT-15 colon.

For the compound `COc1ccccc1N1C(Cl)C(=O)C1c1c[nH]c2ccccc12` (stereo not drawn), the TGI in the assay with SK-MEL-2 melanoma, in the assay with UACC-62 melanoma, with COLO 205 colon, in the assay on MOLT-4 leukemia, in the assay with OVCAR-3 ovarian and in the assay on KM12 colon was above 100 µM each time. Moreover, the TGI in the assay on TK-10 renal, in the assay on OVCAR-5 ovarian and in the assay on SR leukemia was above 100 µM each time.

For the compound `CCCCCCCCCCCCCCCC[N+](C)(C)CCN(Cc1ccc(OC)cc1)c1ncccn1`, the GI50 in the assay with T-47D breast is 1.28 µM; with SK-MEL-2 melanoma, 2.88 µM; with UACC-62 melanoma, 1.75 µM; in the assay with OVCAR-3 ovarian, 1.14 µM; in the assay with OVCAR-5 ovarian, 1.91 µM; in the assay on SR leukemia it was 1.25 µM. For the same compound, the GI50 in the assay on HCT-15 colon was 18.6 µM. The TGI is 2.98 µM in the assay on T-47D breast; 6.95 µM with SK-MEL-2 melanoma; 4.37 µM in the assay on UACC-62 melanoma; 3.32 µM with OVCAR-3 ovarian; 4.62 µM in the assay on OVCAR-5 ovarian; above 100 µM in the assay on SR leukemia. The TGI in the assay with HCT-15 colon was found to be 60.1 µM.

Consider `FC(F)(F)C(C1=NC(C(F)(F)F)(C(F)(F)F)N=C(N2CCOCC2)O1)C(F)(F)F`, for which the concentration for total growth inhibition (TGI) in the assay with T-47D breast was 89.4 µM; in the assay with MDA-N it was 53.8 µM; in the assay with SK-MEL-2 melanoma it was 57.8 µM; with UACC-62 melanoma, 33.5 µM; in the assay with COLO 205 colon, 38.9 µM; with MOLT-4 leukemia, above 100 µM. For the same compound, the total growth inhibition concentration (TGI) in the assay with OVCAR-3 ovarian was above 100 µM; in the assay with KM12 colon it was above 100 µM; in the assay on TK-10 renal, 83.6 µM; in the assay on DU-145 prostate, above 100 µM; in the assay with OVCAR-5 ovarian it was 46.4 µM; in the assay on SR leukemia, 61.2 µM. Moreover, in the assay with HCT-15 colon, the TGI is above 100 µM.

For `COc1cc(-c2c(C#N)c(N)c(C#N)c3c2COc2ccccc2-3)cc(OC)c1OC`, the concentration for total growth inhibition (TGI) in the assay on T-47D breast was above 100 µM; in the assay with MDA-N it was above 100 µM; in the assay on SK-MEL-2 melanoma it was above 77.6 µM; in the assay with UACC-62 melanoma, above 100 µM; with COLO 205 colon, above 100 µM; in the assay on MOLT-4 leukemia it was above 100 µM. Further, the TGI is above 83.8 µM with OVCAR-3 ovarian; above 100 µM with KM12 colon; 40.3 µM in the assay on TK-10 renal; above 100 µM with DU-145 prostate; above 100 µM with OVCAR-5 ovarian; above 100 µM in the assay on SR leukemia. Moreover, the total growth inhibition concentration (TGI) with HCT-15 colon is above 100 µM.

As to `Cc1nc(Nc2ccc(F)cc2)c2sc(=S)n(-c3ccc(F)cc3)c2n1`, the TGI in the assay with T-47D breast came to 19.8 µM; with SK-MEL-2 melanoma, 28.6 µM; in the assay with UACC-62 melanoma, 29.6 µM; in the assay with COLO 205 colon, 27.5 µM; in the assay on OVCAR-3 ovarian, 30.9 µM; in the assay with KM12 colon it was 28.2 µM. Also, the total growth inhibition concentration (TGI) with TK-10 renal was 27.5 µM; in the assay with DU-145 prostate it was 26.2 µM; in the assay on OVCAR-5 ovarian, 36.3 µM; in the assay on SR leukemia it was above 100 µM; with HCT-15 colon, 13.8 µM.

In the case of `COc1ccc2oc(=O)cc(C)c2c1`, the TGI in the assay on T-47D breast, with MDA-N, in the assay with SK-MEL-2 melanoma, in the assay with UACC-62 melanoma, in the assay on COLO 205 colon and with MOLT-4 leukemia was above 100 µM each time. Besides, the concentration for total growth inhibition (TGI) in the assay on OVCAR-3 ovarian, in the assay on KM12 colon, in the assay with TK-10 renal, with DU-145 prostate, in the assay with OVCAR-5 ovarian and with SR leukemia was above 100 µM each time.
